Laboratory results as given in patent US20060069132A1, “Azolecarboxamide herbicides” (priority 2004, published 2006).

Tests used:
Assay in all cases: Test A pre-/postemergence herbicide test
redroot pigweed = assay type: in vivo, Amaranthus retroflexus
From the text: (§1) Seeds of plant species selected from barnyardgrass (Echinochloa crus-galli (L.) Beauv.), downy bromegrass (Bromus tectorum L.), large crabgrass (Digitaria sanguinalis (L.) Scop.), giant foxtail (Setaria faberi Herrm.), morningglory (Ipomoea spp.), redroot pigweed (Amaranthus retroflexus L.) and velvetleaf (Abutilon theophrasti Medik.) were planted into a sandy loam soil and treated preemergence with a directed soil spray using test chemicals formulated in a non-phytotoxic solvent mixture which included a surfactant. At the same time plants selected from these species were also treated postemergence by spraying to runoff with test chemicals formulated.
(§2) Plants ranged in height from 2 to 10 cm and were in the one- to two-leaf stage for the postemergence treatment. Treated plants and untreated controls were maintained in a greenhouse for approximately ten days, after which time all treated plants were compared to untreated controls and visually evaluated for injury. Plant response ratings, summarized in Table A, are based on a 0 to 100 scale where 0 is no effect and 100 is complete control. A dash (-) response means no test results.

barnyardgrass = assay type: in vivo, Echinochloa crus-galli
From the text: as §1, §2

morningglory = assay type: in vivo, Ipomoea spp.
From the text: as §1, §2

velvetleaf = assay type: in vivo, Abutilon theophrasti
From the text: as §1, §2

giant foxtail = assay type: in vivo, Setaria faberi
From the text: as §1, §2

large crabgrass = assay type: in vivo, Digitaria sanguinalis
From the text: as §1, §2

[1] = Postemergence, 125 g ai/ha, 0 to 100 scale, 0 no effect, 100 complete control
[2] = Postemergence, 500 g ai/ha, 0 to 100 scale, 0 no effect, 100 complete control
[3] = preemergence, 125 g ai/ha, visual injury, 0 to 100 scale (0 no effect, 100 complete control)
[4] = preemergence, 500 g ai/ha, visual injury, 0 to 100 scale (0 no effect, 100 complete control)
[5] = Postemergence, 2000 g ai/ha, 0 to 100 scale, 0 no effect, 100 complete control
[6] = Preemergence, 2000 g ai/ha, visual rating, 0 to 100 scale (0 no effect, 100 complete control)

| SMILES | Pigweed plant response rating (redroot pigweed; [1]) | Pigweed plant response rating (redroot pigweed; [2]) | Pigweed plant response rating (redroot pigweed; [3]) | Pigweed plant response rating (redroot pigweed; [4]) | Barnyardgrass plant response rating (barnyardgrass; [1]) | Barnyardgrass plant response rating (barnyardgrass; [2]) | Barnyardgrass plant response rating (barnyardgrass; [3]) | Barnyardgrass plant response rating (barnyardgrass; [4]) | Morningglory plant response rating (morningglory; [1]) | Morningglory plant response rating (morningglory; [2]) | Morningglory plant response rating (morningglory; [3]) | Morningglory plant response rating (morningglory; [4]) | Velvetleaf plant response rating (velvetleaf; [1]) | Velvetleaf plant response rating (velvetleaf; [2]) | Velvetleaf plant response rating (velvetleaf; [3]) | Velvetleaf plant response rating (velvetleaf; [4]) | Foxtail, Giant plant response rating (giant foxtail; [2]) | Foxtail, Giant plant response rating (giant foxtail; [4]) | Crabgrass, Large plant response rating (large crabgrass; [2]) | Crabgrass, Large plant response rating (large crabgrass; [4]) | further results |
| --- | --- | --- | --- | --- | --- | --- | --- | --- | --- | --- | --- | --- | --- | --- | --- | --- | --- | --- | --- | --- | --- |
| CCOC(=O)c1ccc(F)c(NC(=O)c2nc(C(C)(C)C)nn2CC)c1 [Compound 451] | 10 | 50 | 0 | 0 | 10 | 20 | 15 | 55 | 20 | 20 | 0 | 5 | 20 | 30 | 0 | 20 | 20 | 45 | 30 | 25 | Foxtail, Giant plant response rating (giant foxtail; [1]): 10; Foxtail, Giant plant response rating (giant foxtail; [3]): 5; Crabgrass, Large plant response rating (large crabgrass; [1]): 10; Crabgrass, Large plant response rating (large crabgrass; [3]): 5 |
| CCNC(=O)c1cccc(NC(=O)c2cn(CC)nc2C(F)(F)F)c1 [Compound 172] |  | 25 |  | 0 |  | 0 |  | 0 |  | 10 |  | 0 |  | 5 |  | 0 | 0 | 0 | 0 | 0 | Plant response rating, Pigweed (redroot pigweed; [5]): 60; Pigweed plant response rating (redroot pigweed; [6]): 40; Plant response rating, Barnyardgrass (barnyardgrass; [5]): 0; Barnyardgrass plant response rating (barnyardgrass; [6]): 0; Plant response rating, Morningglory (morningglory; [5]): 10; Morningglory plant response rating (morningglory; [6]): 0; Plant response rating, Velvetleaf (velvetleaf; [5]): 15; Velvetleaf plant response rating (velvetleaf; [6]): 0; Plant response rating, Foxtail, Giant (giant foxtail; [5]): 0; Foxtail, Giant plant response rating (giant foxtail; [6]): 0; Plant response rating, Crabgrass, Large (large crabgrass; [5]): 0; Crabgrass, Large plant response rating (large crabgrass; [6]): 0 |
| CCNC(=O)c1ccnc(NC(=O)c2cn(C(C)(C)C)nc2CC)c1 [Compound 452] | 20 | 70 | 10 | 65 | 10 | 35 | 15 | 70 | 20 | 30 | 0 | 10 | 20 | 30 | 0 | 5 | 25 | 45 | 20 | 45 | Foxtail, Giant plant response rating (giant foxtail; [1]): 10; Foxtail, Giant plant response rating (giant foxtail; [3]): 5; Crabgrass, Large plant response rating (large crabgrass; [1]): 10; Crabgrass, Large plant response rating (large crabgrass; [3]): 20 |
